Data as given in patent publication US8742082B2, “Compositions and methods for influencing satiety, lipid metabolism, and fat utilization” (Nestec S.A., priority 2008, dated 2014).

How the values were obtained:
Assay type in all cases: in vivo
[1] = system: N-acylsphingosine amidohydrolase-like (NAAA); experiment: Real-time PCR gene expression in peripheral tissues: NAAA; details: proximal intestine; C57bl6j mice, high fat diet, 100 mg/kg/body weight in diet, 5 weeks
Method: (§1) The expression of 45 genes was measured by real-time PCR in peripheral tissues to identify genes that were differentially expressed in response to oral administration of oleoylethanolamide (OEA) or a non-hydrolysable OEA analog (KDS 5104), which affect satiety, lipid metabolism, fat utilization, food intake, and body fat mass.
(§2) Animals, diet, and experimental design. Adult male C57bl6j mice purchased at 8 weeks of age were individually housed and maintained ad libitum on high fat diet and water for 2 weeks. Seven mice were randomly allocated in 3 groups and fed with a high fat diet (lipids represented 50% of daily energy) for 2 weeks. For one kilogram, the composition of the high fat diet was: 235 g casein, 201 g saccharose, 3.5 g L-cystine, 85 g starch, 116 g maltodextrin, 60 g cellulose, 12 g vitamins mix (AIN-93M, UPAE, Jouy-en-Josas, France), 51.5 g mineral mix (AIN-93Vx, UPAE, Jouy-en-Josas, France), and 236 g lard. Then, either OEA or KDS 5104 was added to the diet at a concentration of 100 mg/kg/body weight. The mice were kept under treatment for 5 weeks.
(§3) Sampling. At the end of the experimental period, mice were sacrificed by blood drawing (cardiac puncture) after anesthesia with isoflurane. Plasma was obtained by centrifugation (1,000 g for 10 min at 4° C.). Mesenteric, epididymal, inguinal and peritoneal adipose depots, as well as liver, stomach, small intestine mucosa, pancreas, and gastrocnemian muscle were removed and frozen into liquid nitrogen. Plasma, urine, feces, and organ samples were kept at −80° C. until analysis.
(§4) RNA extraction and gene expression. Total RNA from liver, intestine mucous membrane, adipose tissues, gastrocnemian muscle, pancreas and stomach were extracted with TRIzol reagent (Invitrogen, Carlsbad, USA) according to the manufacturer's instruction. The RNA concentration was determined on nanodrop from the absorbance at 260 nm. Retro-transcription PCRs to synthesize cDNA were performed using an Applied Biosystem Thermal Cycler 2720 and Superscript II (Invitrogen, Carlsbad, USA) according to manufacturer's protocol. Real-time quantitative PCR (RT-qPCR) were performed on cDNA obtained as described above using a high through put system (Biomek 3000, Beckman & Coulter, Fullerton, USA) and a Lightcycler 480 (Roche/Hitachi, Basel, Switzerland) with SYBR Green Master mix+kit (Eurogentec, Philadelphia, USA). Primers for the selected genes were generated using online informatics assistance from the Lightcycler manufacturer (Roche). Databases used to identify the genes were (1) the NCBI database (GenBank) and (2) the IHOP (Information Hyperlinked over Protein) database (www.ihop-net.org/UniPub/iHOP/bng/). Values were expressed as ratio of RNA levels relative to control mice (diets with 0 mg of OEA/kg/body weight) using ΔΔ(Ct) (Livak K J & Schmittgen T D, 2001, Methods 25:402-8). Gene expression of the following genes was measured (abbreviation and GenBank Accession shown in parentheses).
(§5) Statistical analysis. […] Statistical analysis of physiological parameters and gene expression data was performed by one-way ANOVA on Statview software (SAS Institute, Cary, USA). Daily food intake was analyzed using two-way ANOVA on Statview software. Statistical significance was set up at the P<0.05 level, the P<0.01 level and the P<0.001 level. For statistical analysis of the gene expression data, values were calculated relative to 18S expression for each mouse and gene.

Leptin = experiment: Real-time PCR gene expression in peripheral tissues: leptin; details: C57bl6j mice, high fat diet, 100 mg/kg/body weight in diet, 5 weeks
Method: as §1, §2, §3, §4, §5

[2] = system: Cannabinoid receptor 1 (CB 1); experiment: Real-time PCR gene expression in peripheral tissues: CB1; details: C57bl6j mice, high fat diet, 100 mg/kg/body weight in diet, 5 weeks
Method: as §1, §2, §3, §4, §5

[3] = system: Sterol regulatory element binding protein-c 1 (SREBP 1c); experiment: Real-time PCR gene expression in peripheral tissues: SREBP1c; details: C57bl6j mice, high fat diet, 100 mg/kg/body weight in diet, 5 weeks
Method: as §1, §2, §3, §4, §5

[4] = system: G protein coupled receptor 119 (GPR 119); experiment: Real-time PCR gene expression in peripheral tissues: GPR119; details: proximal intestine; C57bl6j mice, high fat diet, 100 mg/kg/body weight in diet, 5 weeks
Method: as §1
(§6) Animals, diet, and experimental design. Adult male C57bl6j mice purchased at 8 weeks of age were individually housed and maintained ad libitum on high fat diet and water for 2 weeks. Seven mice were randomly allocated in 3 groups and fed with a high fat diet (lipids represented 50% of daily energy) for 2 weeks. […]
(§7) RNA extraction and gene expression. […] The RNA concentration was determined on nanodrop from the absorbance at 260 nm. […] Real-time quantitative PCR (RT-qPCR) were performed on cDNA obtained as described above using a high through put system (Biomek 3000, Beckman & Coulter, Fullerton, USA) and a Lightcycler 480 (Roche/Hitachi, Basel, Switzerland) with SYBR Green Master mix+kit (Eurogentec, Philadelphia, USA). […] Values were expressed as ratio of RNA levels relative to control mice (diets with 0 mg of OEA/kg/body weight) using ΔΔ(Ct) (Livak K J & Schmittgen T D, 2001, Methods 25:402-8). Gene expression of the following genes was measured (abbreviation and GenBank Accession shown in parentheses). […]

[5] = system: Glucose 6-phosphatase (G6P); experiment: Real-time PCR gene expression in peripheral tissues: G6P; details: liver; C57bl6j mice, high fat diet, 100 mg/kg/body weight in diet, 5 weeks
Method: as §1, §6, §7

[6] = system: overall gene expression pattern; experiment: Multivariate statistical analysis of overall gene expression pattern; details: C57bl6j mice, high fat diet, 100 mg/kg/body weight in diet, 5 weeks
Method: as §1, §6, §7

[7] = system: Oleoylethanolamide synthase (OEA synthase); experiment: Real-time PCR gene expression in peripheral tissues: OEA synthase; details: proximal intestine; C57bl6j mice, high fat diet, 100 mg/kg/body weight in diet, 5 weeks
Method: as §1, §6, §7

[8] = system: Phosphoenolpyruvate carboxykinase (PEP CK); experiment: Real-time PCR gene expression in peripheral tissues: PepCK; details: liver; C57bl6j mice, high fat diet, 100 mg/kg/body weight in diet, 5 weeks
Method: as §1, §6, §7

[9] = system: Stearoyl-Coenzyme A desaturase 1 (SCD 1); experiment: Real-time PCR gene expression in peripheral tissues: SCD1; details: C57bl6j mice, high fat diet, 100 mg/kg/body weight in diet, 5 weeks
Method: as §1, §2, §3, §4, §5

[10] = system: Fatty acid transporter/cluster of differentiation 36 (FAT/CD 36); experiment: Real-time PCR gene expression in peripheral tissues: FAT/CD36; details: C57bl6j mice, high fat diet, 100 mg/kg/body weight in diet, 5 weeks
Method: as §1, §2, §3, §4
Statistical analysis. Results are presented as means±standard error of the means (SEM). Statistical analysis of physiological parameters and gene expression data was performed by one-way ANOVA on Statview software (SAS Institute, Cary, USA). Daily food intake was analyzed using two-way ANOVA on Statview software. Statistical significance was set up at the P<0.05 level, the P<0.01 level and the P<0.001 level. For statistical analysis of the gene expression data, values were calculated relative to 18S expression for each mouse and gene.

Ghrelin = experiment: Real-time PCR gene expression in peripheral tissues: ghrelin; details: stomach; C57bl6j mice, high fat diet, 100 mg/kg/body weight in diet, 5 weeks
Method: as §1, §6, §7

CCCCCCCC/C=C\CCCCCCCC(=O)N[C@H](C)CO [KDS 5104, (Z)—(R)-9-octadecenamide, N-(2-hydroxyethyl, 1-methyl)]
NAAA i, ratio of RNA levels relative to control mice [1]: 1.60 | leptin at ep, ratio of RNA levels relative to control mice (Leptin; epidydimal adipose tissue): 1.35 | leptin at per, ratio of RNA levels relative to control mice (Leptin; peritoneal adipose tissue): −1.32 | leptin s, ratio of RNA levels relative to control mice (Leptin; stomach): −1.02 | CB1 at ep, ratio of RNA levels relative to control mice ([2]; epidydimal adipose tissue): −1.48 | CB1 at per, ratio of RNA levels relative to control mice ([2]; peritoneal adipose tissue): −3.00 | CB1 i, ratio of RNA levels relative to control mice ([2]; proximal intestine): −1.25 | SREBP1c at ep, ratio of RNA levels relative to control mice ([3]; epidydimal adipose tissue): 1.00 | SREBP1c l, ratio of RNA levels relative to control mice ([3]; liver): 1.47 | SREBP1c at per, ratio of RNA levels relative to control mice ([3]; peritoneal adipose tissue): −1.35 | GPR119 i, ratio of RNA levels relative to control mice [4]: 4.95 | G6P l, ratio of RNA levels relative to control mice [5]: 2.12 | overall gene expression pattern (multivariate statistical analysis) [6]: significant shift | OEA synthase i, ratio of RNA levels relative to control mice [7]: −1.36 | PepCK l, ratio of RNA levels relative to control mice [8]: 1.55 | SCD 1 at ep, ratio of RNA levels relative to control mice ([9]; epidydimal adipose tissue): 1.24 | SCD1 l, ratio of RNA levels relative to control mice ([9]; liver): −1.91 | SCD 1 at per, ratio of RNA levels relative to control mice ([9]; peritoneal adipose tissue): 1.51 | FAT/CD36 at ep, ratio of RNA levels relative to control mice ([10]; epidydimal adipose tissue): −2.24 | FAT/CD36 l, ratio of RNA levels relative to control mice ([10]; liver): 0.88 | FAT/CD36 at per, ratio of RNA levels relative to control mice ([10]; peritoneal adipose tissue): 1.01 | FAT/CD36 i, ratio of RNA levels relative to control mice ([10]; proximal intestine): 1.83 | ghrelin s, ratio of RNA levels relative to control mice (Ghrelin): 1.04
